According to patent EP4617268A1, “QUINAZOLINE DERIVATIVES” (Kyoto University, priority 2022, dated 2024):

Tested on: IKBKAP-FD exon 20 inclusion (IKBKAP gene, IVS20+6T>C mutation)
Experiment: SPREADD reporter system for the IKBKAP splicing mutation (exon 20 skipping, IVS20+6T>C) in transfected HeLa cells, GFP/RFP ratio
Assay type: cell-based
Conditions: Homo sapiens, 24 h; HeLa cells transfected with SPREADD reporter construct; fluorescence measured one day later; IKBKAP-FD exon 20 inclusion rate by GFP/RFP ratio; %GFP of 20 pM 2-chloro-6-(2-furylmethyl)purine set to 100%
Description: A SPREADD reporter system for a splicing mutation of the IKBKAP gene in familial dysautonomia was prepared, as illustrated in FIG. 1. In this reporter system, GFP is expressed when the gene undergoes normal splicing, while RFP is expressed when the gene undergoes abnormal splicing (exon skipping).
HeLa cells transfected with the prepared SPREADD reporter construct were brought into contact with the compounds listed in Table 2 below and cultured (concentrations: 22.86237 nM, 68.58711 nM, 205.7613 nM, 617.284 nM, 1851.852 nM, 5555.556 nM, 16666.67 nM, or 50000 nM). One day later, fluorescence was measured using All-in-One Fluorescence Microscope BZ-X700 (Keyence Corp.), and the IKBKAP-FD exon 20 inclusion rate was quantified by the GFP/RFP ratio of the IKBKAP-FD reporter. […] The EC50 was determined with %GFP of 20 pM 2-chloro-6-(2-furylmethyl)purine set to 100%. Regression analysis for determining EC50 was performed using GraphPad Prism 7.05.

SMILES	EC50 [µM]
COc1cc2nc(Cl)nc(NCc3ccoc3)c2cc1OC [Example 8, 2-Chloro-N-(furan-3-ylmethyl)-6,7-dimethoxyquinazolin-4-amine]	20
COc1cc2nc(Cl)nc(NCc3ccco3)c2cc1OC [Example 1, 2-Chloro-N-(furan-2-ylmethyl)-6,7-dimethoxyquinazolin-4-amine]	2.1
COc1ccc2nc(Cl)cc(NCc3ccco3)c2c1 [Example 13, 2-Chloro-N-(furan-2-ylmethyl)-6-methoxyquinolin-4-amine]	4.39
COc1cc2nc(Cl)nc(NCc3cc[nH]c3)c2cc1OC [Example 7, 2-Chloro-6,7-dimethoxy-N-(1H-pyrrol-3-ylmethyl) quinazolin-4-amine]	21.9
COc1ccc2nc(Cl)nc(NCc3ccco3)c2c1 [Example 11, 2-Chloro-N-(furan-2-ylmethyl)-6-methoxyquinazolin-4-amine]	8
COc1cc2nc(Cl)nc(NCc3ncco3)c2cc1OC [Example 6, 2-Chloro-6,7-dimethoxy-N-(1,3-oxazol-2-ylmethyl)quinazolin-4-amine]	5.7
COc1cc2nc(Cl)nc(NCc3ccccn3)c2cc1OC [Example 9, 2-Chloro-6,7-dimethoxy-N-(pyridin-2-ylmethyl)quinazolin-4-amine]	3.34
COc1ccc2c(NCc3ccco3)cc(Cl)nc2c1 [Example 12, 2-Chloro-N-(furan-2-ylmethyl)-7-methoxyquinolin-4-amine]	1.08
COc1cc2nc(Cl)nc(NCc3ccsc3)c2cc1OC [Example 3, 2-Chloro-6,7-dimethoxy-N-(thiophen-3-ylmethyl)quinazolin-4-amine]	2.82
CCOc1cc2c(NCc3ccco3)nc(Cl)nc2cc1OC [Example 14, 2-Chloro-6-ethoxy-N-(furan-2-ylmethyl)-7-methoxyquinazolin-4-amine]	1.37
CCCOc1cc2c(NCc3ccco3)nc(Cl)nc2cc1OC [Example 15, 2-Chloro-N-(furan-2-ylmethyl)-7-methoxy-6-propoxyquinazolin-4-amine]	0.6
COc1cc2nc(Cl)nc(NCc3nccs3)c2cc1OC [Example 4, 2-Chloro-6,7-dimethoxy-N-(1,3-thiazol-2-ylmethyl)quinazolin-4-amine]	35.9
COc1ccc2c(NCc3ccco3)nc(Cl)nc2c1 [Example 10, 2-Chloro-N-(furan-2-ylmethyl)-7-methoxyquinazolin-4-amine]	2.9
COc1cc2nc(Cl)nc(NCc3cccs3)c2cc1OC [Example 2, 2-Chloro-6,7-dimethoxy-N-(thiophen-2-ylmethyl)quinazolin-4-amine]	2.12
COc1cc2nc(Cl)nc(NCc3ccncc3)c2cc1OC [Example 5, 2-Chloro-6,7-dimethoxy-N-(pyridin-4-ylmethyl)quinazolin-4-amine]	4.2

Other lines, results leading:

EC50 [µM]	SMILES
0.82	COc1cc2nc(Cl)nc(NCc3ccco3)c2cc1OCCO [Example 26, 2-({2-Chloro-4-[(furan-2-ylmethyl)amino]-7-methoxyquinazolin-6-yl}oxy)ethanol]
0.48	CNCCOc1cc2c(NCc3ccco3)nc(Cl)nc2cc1OC [Example 24, 2-Chloro-N-(furan-2-ylmethyl)-7-methoxy-6-[2-(methylamino)ethoxy]quinazolin-4-amine]
8.5	COc1cc2nc(Cl)nc(NCc3ccco3)c2cc1OCCCN1CCOCC1 [Example 21, 2-Chloro-N-(furan-2-ylmethyl)-7-methoxy-6-[3-(morpholin-4-yl)propoxy]quinazolin-4-amine]
2.49	COc1cc2nc(Cl)nc(NCc3ccco3)c2cc1OC(C)C [Example 16, 2-Chloro-N-(furan-2-ylmethyl)-7-methoxy-6-(propan-2-yloxy)quinazolin-4-amine]
0.17	COc1cc2nc(Cl)nc(NCc3ccco3)c2cc1OCC1COC1 [Example 19, 2-Chloro-N-(furan-2-ylmethyl)-7-methoxy-6-(oxetan-3-ylmethoxy)quinazolin-4-amine]
3.06	COCCOc1cc2c(NCc3ccco3)nc(Cl)nc2cc1OC [Example 17, 2-Chloro-N-(furan-2-ylmethyl)-7-methoxy-6-(2-methoxyethoxy)quinazolin-4-amine]
1.6	COc1cc2nc(Cl)nc(NCc3ccco3)c2cc1OCC1CC1 [Example 18, 2-Chloro-6-(cyclopropylmethoxy)-N-(furan-2-ylmethyl)-7-methoxyquinazolin-4-amine]
8.34	COc1cc2nc(Cl)nc(NCc3ccco3)c2cc1OCCN1CCOCC1 [Example 20, 2-Chloro-N-(furan-2-ylmethyl)-7-methoxy-6-[2-(morpholin-4-yl)ethoxy] quinazolin-4-amine]
0.79	COc1cc2nc(Cl)nc(NCc3ccco3)c2cc1OCCN(C)C [Example 25, 2-Chloro-6-[2-(dimethylamino)ethoxy]-N-(furan-2-ylmethyl)-7-methoxyquinazolin-4-amine]
6.41	COC(=O)CCOc1cc2c(NCc3ccco3)nc(Cl)nc2cc1OC [Example 29, Methyl 3-({2-chloro-4-[(furan-2-ylmethyl)amino]-7-methoxyquinazolin-6-yl}oxy)propanoate]
2.02	COc1cc2nc(Cl)nc(NCc3ccco3)c2cc1OCC1COCCO1 (stereo not drawn) [Example 27, 2-Chloro-6-(1,4-dioxan-2-ylmethoxy)-N-(furan-2-ylmethyl)-7-methoxyquinazolin-4-amine]
3.15	COc1cc2c(NCc3ccco3)nc(Cl)nc2cc1OCCN [Example 31, 7-(2-Aminoethoxy)-2-chloro-N-(furan-2-ylmethyl)-6-methoxyquinazolin-4-amine]
26.4	COC(=O)COc1cc2c(NCc3ccco3)nc(Cl)nc2cc1OC [Example 30, Methyl ({2-chloro-4-[(furan-2-ylmethyl)amino]-7-methoxyquinazolin-6-yl}oxy)acetate]
14.5	COc1cc2nc(Cl)nc(NCc3ccco3)c2cc1OCCC1CS(=O)(=O)C1 [Example 22, 2-Chloro-6-[2-(1,1-dioxidothiethan-3-yl)ethoxy]-N-(furan-2-ylmethyl)-7-methoxyquinazolin-4-amine]
0.53	COc1cc2nc(Cl)nc(NCc3ccco3)c2cc1OCCN [Example 23, 6-(2-Aminoethoxy)-2-chloro-N-(furan-2-ylmethyl)-7-methoxyquinazolin-4-amine]
3.65	CCOc1cc2nc(Cl)nc(NCc3ccco3)c2cc1OC [Example 33, 2-Chloro-7-ethoxy-N-(furan-2-ylmethyl)-6-methoxyquinazolin-4-amine]
4.29	CNCCOc1cc2nc(Cl)nc(NCc3ccco3)c2cc1OC [Example 32, 2-Chloro-N-(furan-2-ylmethyl)-6-methoxy-7-[2-(methylamino)ethoxy]quinazolin-4-amine]
> 50	COc1cc2nc(Cl)nc(NCc3ccco3)c2cc1OCCC(=O)O [Example 28, 3-({2-Chloro-4-[(furan-2-ylmethyl)amino]-7-methoxyquinazolin-6-yl}oxy)propanoic acid]
